# Key:
# [1] = tested on: mouse myopia-induced model; assay: Mouse myopia-induced model (−30 D minus lens): suppression of myopia induction; details: for difference of variation in refractive value between lens-worn eyes and control eyes / difference of variation in axial length of the eye between lens-worn eyes and control eyes: 50 μM in PBS; for difference of variation in refractive value between lens-worn eyes and control eyes: FIG. 8A right graph; for difference of variation in axial length of the eye between lens-worn eyes and control eyes: FIG. 8B right graph; for refractive value variation of lens-worn myopia-induced eyes vs PBS administered group / axial length of the eye variation of lens-worn myopia-induced eyes vs PBS administered group: three weeks; for refractive value variation of lens-worn myopia-induced eyes vs PBS administered group: FIG. 6 left; for axial length of the eye variation of lens-worn myopia-induced eyes vs PBS administered group: FIG. 6 right
# Experimental: Specifically, the mouse myopia-induced model is prepared as follows. Because it is easier to induce myopia to a juvenile mouse, it is preferable to mount the minus lens as soon as possible after the weaning. A 3-week-old C57BL6J is used here. The mouse is anesthetized with three types-mixed anesthetic of Domitor (Nippon Zenyaku Kogyo Co., Ltd.), Betorphal (Meiji Seika Pharma Co., Ltd.), and Midazolam (Sandoz K. K.). The skull is then opened with scissors. A post 1 is erected in the skull and fixed with dental cement (Super-Bond, Sun Medical Co., Ltd.). The post is threaded to fix an adjusting instrument described later with a nut.
# To induce myopia, −30 diopter (D) minus lens (Rainbow contact, Rainbow Optical Laboratory Co., Ltd.) 2 is mounted on one side, and 0 D lens or only frame 3 is mounted on the other side as a control. A protector 4 having a laterally projected shape is mounted to a frame part in the lower portion of the lens to prevent the mouse from damaging the lens with its forelegs or the like when mounting the lens to the mouse. The protector 4 prevents the mouse from touching the lens, causing no damages on the lens. The protector 4 used here is in the form mounted to the frame part and integrated with it, although it needs not be integrated with the lens as long as the mouse behavior will not damage the lens.
# An adjusting instrument 5 is bonded to a frame part in the upper portion of the lens to adjust the width and angle of the mounted lens in response to the growth of the mouse. The adjusting instrument 5 is folded in a dog leg shape. The adjusting instrument 5 includes one side mounted with the lens and the other side provided with a slot 6 for mounting the adjusting instrument 5 to the post 1 erected in the head. Putting the post 1 over the slot 6 and screwing it with a nut 7 can adhere and fix the adjusting instrument 5 to the skin without compressing the periphery of both eyes of the mouse.
# An adjustment mechanism including three parts of the post 1, the nut 7, and the adjusting instrument 5 can adjust the width and angle to bring the lens to the mouse eye position in response to the growth of the mouse. Further, because the lens is detachable, it is possible to measure the change over time of the axial length of the eye and the refractive value.
# The left eye was worn with only a frame as a control and the right eye was worn with a −30 D lens for three weeks. The refractive value, the axial length of the eye, and the sclera thickness were measured to find the differences between before and after wearing them. The refractive value was measured with a refractometer (Infrared photorefractor for mice, made by Proffesor Schaeffel, University of Tubingen). The axial length of the eye was measured with an SD-OCT (Spectral-Domain Optical Coherence Tomography, Envisu R4310, Bioptigen Inc.). The sclera thickness was measured by obtaining an optical image of a hematoxylin and eosin (HE) stained paraffin piece by an optical microscope (BX53, Olympus Corporation) and then using an imaging software cellSens. The results were analyzed with ANOVA, Turky HSD.
# Then, an analysis was conducted to check for suppression of myopia induction by administration of endoplasmic reticulum stress suppressant. […] Note that only phosphate-buffered saline (PBS) was administered to the control group.
# mouse eye = assay: Induction of myopia by eye drop of endoplasmic reticulum stress inducer; type: in vivo, C57BL6J mouse; details: single eye drop, right eye, one week after administration, FIG. 7
# Experimental: Because the endoplasmic reticulum stress suppressant has a suppression effect on myopia induction as describe above, it is considered that the endoplasmic reticulum stress directly participates in myopia induction. Then, an analysis was conducted to check for induction of myopia by administration of an agent for inducing endoplasmic reticulum stress. The subject was a 3-week-old male C57BL6J mouse (n=12). The right eye of the mouse was administered once by eye drop with 50 μg/ml of tunicamycin (Tm) (Sigma-Aldrich Co. LLC) or 10 μM of thapsigargin (TG) (Wako Pure Chemical Industries, Ltd.), and the left eye was administered once by eye drop with PBS (Veh).
# [2] = eye drop once a day, one week, n=3
# [3] = 0.2% solution in PBS, eye drop once a day, n=4
# [4] = 2% solution in PBS, eye drop once a day, n=4
compound,measurement,setting,value
Cc1cccc(CC(=O)N2CCc3c2ccc(-c2cn(C)c4ncnc(N)c24)c3F)n1 [GSK2656157],difference of variation in refractive value between lens-worn eyes and control eyes,[1]; [2],significant decrease in difference of variation
same,difference of variation in axial length of the eye between lens-worn eyes and control eyes,[1]; [2],significant decrease in difference of variation
Cc1c(O)cccc1C(=O)N[C@@H](CSc1ccccc1)[C@H](O)CN1C[C@H]2CCCC[C@H]2C[C@H]1C(=O)NC(C)(C)C [Nelfinavir],difference of variation in refractive value between lens-worn eyes and control eyes,[1]; [2],significant decrease in difference of variation
same,difference of variation in axial length of the eye between lens-worn eyes and control eyes,[1]; [2],significant decrease in difference of variation
O=S(=O)(N=Cc1c(O)ccc2ccccc12)c1cccs1 [STF-083010],"refractive value variation, lens-worn eye against lens-unworn control eye","[1]; 60 μM in PBS, eye drop once a day, one week, n=3, FIG. 8A",showed significant changes
same,"axial length of the eye variation, lens-worn eye against lens-unworn control eye","[1]; 60 μM in PBS, eye drop once a day, one week, n=3, FIG. 8B",showed significant changes
"C[C@H](CCC(=O)NCCS(=O)(=O)O)[C@H]1CC[C@H]2[C@@H]3[C@@H](O)C[C@@H]4C[C@H](O)CC[C@]4(C)[C@H]3CC[C@]12C [tauroursodeoxycholic acid, Tauroursodeoxycholic acid]","changes in the refractive value, −30 D lens-worn eyes vs only frame-worn eyes","[1]; 100 mg/kg once a day intraperitoneal, one week after wearing the lens, n=4, FIG. 5 left",no differences were recognized between both types of eyes
same,changes in the axial length of the eye of myopia-induced eyes vs PBS administered group,"[1]; 100 mg/kg once a day intraperitoneal, one week after wearing the lens, n=4, FIG. 5 right",significant changes were recognized in the axial length of the eye
C/C=C(/C)C(=O)O[C@H]1C(C)=C2[C@H]([C@@H]1OC(=O)CCCCCCC)[C@@](C)(OC(C)=O)C[C@H](OC(=O)CCC)[C@@]1(O)[C@H]2OC(=O)[C@@]1(C)O [thapsigargin],axial length of the eye variation vs PBS administered eyes (myopia induction),mouse eye; 10 μM,significant differences were recognized
same,refractive value variation vs PBS administered eyes (myopia induction),mouse eye; 10 μM,significant differences were recognized
sodium phenylbutyrate,refractive value variation of lens-worn myopia-induced eyes vs PBS administered group,[1]; [3],showed a tendency to suppress changes
same,axial length of the eye variation of lens-worn myopia-induced eyes vs PBS administered group,[1]; [3],showed a tendency to suppress changes
same,"variation in the refractive value, −30 D lens-worn eyes vs only frame-worn eyes","[1]; 200 mg/kg/day intraperitoneal, day 2 to 21 after wearing the lens, measured on day 21, FIG. 4A",no changes were recognized in the refractive value
same,"changes in the axial length of the eye, minus lens-worn eyes vs only frame-worn eyes","[1]; 200 mg/kg/day intraperitoneal, day 2 to 21 after wearing the lens, measured on day 21, FIG. 4B",no difference was recognized in the extension
same,extension of the normal axial length of the eye associated with the growth,"[1]; 200 mg/kg/day intraperitoneal, one week and three weeks after wearing the lens, FIG. 4C",does not affect the extension of the normal axial length of the eye associated with the growth
same,refractive value variation of lens-worn myopia-induced eyes vs PBS administered group,[1]; [4],significant differences were recognized
same,axial length of the eye variation of lens-worn myopia-induced eyes vs PBS administered group,[1]; [4],significant differences were recognized
tunicamycin,axial length of the eye variation vs PBS administered eyes (myopia induction),mouse eye; 50 μg/ml,significant differences were recognized
same,refractive value variation vs PBS administered eyes (myopia induction),mouse eye; 50 μg/ml,significant differences were recognized

# Source: US20240210736A1, “MOUSE MYOPIA-INDUCED MODEL AND ENDOPLASMIC RETICULUM STRESS SUPPRESSANT FOR PREVENTING AND SUPPRESSING MYOPIA” (TSUBOTA LABORATORY, INC., priority 2017, published 2024)
